Like-named read-outs stand apart in the source and are kept apart here. One block for each molecule: values may come before it.
Legend:
A. fumigatus UGM [1] = molecular target: T1, A. fumigatus UGM (Aspergillus fumigatus, UniProt Q4W1X2); test: biochemical; format: biochemical; conditions: for Inhibition of product formation, concentration dependence: UPLC at 20 and 200 µM compound, 2% DMSO; for Concentration effect: UPLC; for inhibition at 200 µM: read-out: Inhibition > 50 %; for enzyme activity at which the IC50 curve plateaued: 3 min
T1 construct: 8x His-tag (TEV-cleavable) (cleaved yes); made in house; host or cells: E. coli BL21 Turbo (DE3)
T1 sequence (Q4W1X2 whole entry): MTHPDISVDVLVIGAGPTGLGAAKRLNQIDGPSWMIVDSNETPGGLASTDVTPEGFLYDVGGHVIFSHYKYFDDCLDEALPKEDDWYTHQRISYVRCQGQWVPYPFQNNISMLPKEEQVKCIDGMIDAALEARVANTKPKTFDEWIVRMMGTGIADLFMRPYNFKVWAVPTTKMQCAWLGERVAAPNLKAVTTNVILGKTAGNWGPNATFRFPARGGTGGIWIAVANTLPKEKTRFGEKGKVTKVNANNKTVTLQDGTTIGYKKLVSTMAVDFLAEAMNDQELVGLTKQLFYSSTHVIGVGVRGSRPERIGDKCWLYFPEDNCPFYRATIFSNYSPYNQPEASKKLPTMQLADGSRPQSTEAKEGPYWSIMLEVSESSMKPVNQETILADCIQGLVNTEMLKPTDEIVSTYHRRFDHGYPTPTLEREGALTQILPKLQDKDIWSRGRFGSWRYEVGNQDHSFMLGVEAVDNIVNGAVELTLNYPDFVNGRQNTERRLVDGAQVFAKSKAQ
Method: (§1) The reaction was quenched with the addition of 70 µL acetonitrile. […] Samples were run at a flow rate of 0.5 mL/min for 5 min. IC50 was also determined by following NADPH oxidation at 340 nm. […] Data was analyzed using KaleidaGraph software. […] Global fitting was performed with Graphpad Prims 6 software (La Jolla, CA).

A. fumigatus UGM [2] = molecular target: T1, A. fumigatus UGM; test: ADP-TAMRA fluorescence anisotropy binding and competition assay; conditions: for Kd: decrease in anisotropy of UGM (6.7 µM) - ADP-TAMRA (30 nM) complex, read-out: KD, competitive binding against ADP-TAMRA
Method: Our group previously developed a binding assay to identify inhibitors of flavoenzymes that use NADP(H) as substrate. Since UGM also used NADPH for reduction, we determined whether this compound bound to UGM. This was done by taking the ADP-TAMRA[22] chromophore to a final concentration of 30 nM in 25 mM HEPES buffer, pH 7.5, mixed with various concentrations of UGM (0–300 µM, based on Bradford). To determine if the chromophore was binding to the active site of UGM, the competitive binding of UDP (0–1 mM) and NADP^+ (0–10 mM) was calculated by measuring the decrease in anisotropy of the UGM (6.7 µM) - ADP-TAMRA (30 nM) complex. At each concentration of ligand, the solution was incubated for 10 min at room temperature. The sample was excited at 544 nm and the emission recorded at 584 nm using a wavelength cutoff of 570 nm.

A. fumigatus UGM [3] = molecular target: T1, A. fumigatus UGM; test: biochemical; format: binding
Method: Binding of inhibitors to UGM was measured with an Auto-ITC 200 ITC instrument. UGM was dialyzed in 50 mM potassium phosphate buffer, pH 7.0, for 2 h at 4 °C. In all cases, ligands were dissolved in dialysis buffer and protein and ligand were filtered with a […] membrane prior to loading. […] Inhibitor concentration in the syringe was 2 mM (2% DMSO), except for chrysin where the concentration was 600 µM (4% DMSO). […] Thermodynamic parameters were determined from ITC results using Microcal Origin version 7.0 (OriginLab) with the “ITC custom” add-on installed.

A. fumigatus [4] = test: Toxicity study, growth in PDA medium at 37 °C; format: cell-based, Aspergillus fumigatus
A. fumigatus [5] = test: Thermotolerance study, growth in PDA at 50 °C; format: cell-based, Aspergillus fumigatus; conditions: 1000 µM compound, 48 h at 50 °C, vs reference
[6] = system: UDP-glucuronosyltransferases; conditions: cited from earlier work
A. fumigatus [7] = test: Congo red susceptibility assay; format: cell-based, Aspergillus fumigatus; conditions: 100 µM compound with congo red (0.5 and 1 mg/mL), 48 h, 37 °C
A. fumigatus UGM [8] = molecular target: T1, A. fumigatus UGM; test: biochemical; format: binding; conditions: read-out: Normalized anisotropy (%)
Method: High-throughput screening of the Spectrum Collection library using the FP assay with the ADP-TAMRA[22] probe was performed at the Virginia Tech Center for Drug Discovery Screening Laboratory. 384 well plates (Greiner 784900) were used and the reaction volume was 15 µL using 25 mM HEPES buffer (pH 7.0). For the screening, 30 nM of ADP-TAMRA with 6.7 µM UGM (based on the Bradford assay) and 20 µM of library compound were used, with a final DMSO concentration of 2%. Fluorescence polarization measurements were performed with excitation at 544 nm and emission at 584 nm, using a wavelength cutoff of 570 nm. Anisotropy measurements were performed after 30 and 120 minutes of incubation at 25 °C. Anisotropy values were normalized to the values obtained in the negative control sample: UGM, ADP-TAMRA, and DMSO (high anisotropy values). The positive control consisted of ADP-TAMRA and DMSO (low anisotropy values). The Z prime (Z′) value was determined using equation (1) where, σN,P and μN,P represent the standard deviation and the mean value the of the negative and positive controls respectively.1 Z′=1−3(σN+σP)/|μN−μP|

A. fumigatus UGM [9] = molecular target: T1, A. fumigatus UGM; test: biochemical; format: biochemical; conditions: for Inhibition of NADPH oxidation: absence of UDP-Galf
Method: as §1

UGM = molecular target: T2, UGM (Aspergillus fumigatus, UniProt Q4W1X2); test: ThermoFAD melting temperature assay; format: binding; conditions: for Effect on Tm of UGM: vs UGM alone
T2 construct: 8x His-tag (TEV-cleavable) (cleaved yes); made in house; host or cells: E. coli BL21 Turbo (DE3)
T2 sequence (Q4W1X2 whole entry): as above
Method: The melting temperature[25] of UGM was determined by measuring the FAD fluorescence as a function of temperature (20–90 °C, 1 °C step) following the reported ThermoFAD procedure. The reaction mix consisted of 20 µL of 1 mg/mL UGM, 2% DMSO in 50 mM potassium phosphate buffer, pH 7.0. As a reference and positive control, the Tm was calculated in the presence DMSO and UDP (10 mM). Different concentrations of inhibitors were added in the range of 0–1 mM at a final DMSO concentration of 2% in the above-mentioned buffer. All experiments were done in triplicate.

[10] = Precipitation / solubility observed in inhibition assays; format: physicochemical
[11] = 20 µM compound, 2% DMSO, 30 nM ADP-TAMRA, normalized to negative control
[12] = inhibition at 200 µM vs 20 µM compound
[13] = 20, 100 and 1000 µM compound, 2% DMSO, 1 mg/mL UGM
[14] = product formation by UPLC with 200 µM compound, 20 µM UDP-Galf, 10 mM sodium dithionite

Inhibition of UGM by derivatives (A. fumigatus UGM [1]): no inhibitory effect
SMILES: O=C1C[C@@H](c2ccc(O)cc2)Oc2cc(O)ccc21 [liquiritigenin]

Kd (A. fumigatus UGM [2]): 124 ± 16 µM
SMILES: Nc1ncnc2c1ncn2[C@@H]1O[C@H](COP(=O)(O)OP(=O)(O)O)[C@@H](O)[C@H]1O [ADP]

Kd (A. fumigatus UGM [2]): 92 ± 13 µM
T•∆S (A. fumigatus UGM [3]; ITC, 25 °C): -8.4 ± 0.7 kcal/mol
∆G (A. fumigatus UGM [3]; ITC, 25 °C): -4.6 ± 0.3 kcal/mol
∆H (A. fumigatus UGM [3]; ITC, 25 °C): -13.0 ± 0.3 kcal/mol
Kd (A. fumigatus UGM [3]; ITC, 25 °C, read-out: KD): 413 ± 24 µM
SMILES: NC(=O)c1ccc[n+]([C@@H]2O[C@H](COP(=O)([O-])OP(=O)(O)OC[C@H]3O[C@@H](n4cnc5c(N)ncnc54)[C@H](OP(=O)(O)O)[C@@H]3O)[C@@H](O)[C@H]2O)c1 [NADP^+, reference compound]

SMILES: O=C1C[C@@H](c2ccc(O)cc2)Oc2cc(O)cc(O)c21 [(2S)-naringenin]
A. fumigatus toxicity (A. fumigatus [4]; 1000 µM): no A. fumigatus toxicity
A. fumigatus toxicity under optimal growth conditions (A. fumigatus [4]; 600 and 1000 µM, 24-48 h): not toxic
Delay in colony development (A. fumigatus [5]): ~ 30%
Effect on UDP-glucuronosyltransferases [6]: inhibitory effect
Growth decrease with congo red (A. fumigatus [7]): ~ 30%
remaining activity at 20 µM (A. fumigatus UGM [8]; [11]): 23%
Type of Inhibition (A. fumigatus UGM [9]; NADPH oxidation at different concentrations of inhibitor and NADPH): competitive against NADPH
Inhibition of NADPH oxidation (A. fumigatus UGM [9]): inhibited NADPH oxidation
Inhibition of product formation, concentration dependence (A. fumigatus UGM [1]): concentration dependent potency
Concentration effect (A. fumigatus UGM [1]; [12]): +
inhibition at 200 µM (A. fumigatus UGM [1]): > 50%
Kd (A. fumigatus UGM [3]): 65 ± 13 µM
T•∆S (A. fumigatus UGM [3]; ITC, 25 °C): 0.9 ± 0.3 kcal/mol
∆G (A. fumigatus UGM [3]; ITC, 25 °C): -5.7 ± 1.0 kcal/mol
∆H (A. fumigatus UGM [3]; ITC, 25 °C): -4.8 ± 1.0 kcal/mol
Increase of Tm of UGM (UGM; [13]): ~ 2.7 °C

SMILES: O=C(O)c1cc(/N=N/c2ccc(O)c(C(=O)O)c2)ccc1O [Olsalazine sodium, reference compound]
remaining activity at 20 µM (A. fumigatus UGM [8]): 48%
Concentration effect (A. fumigatus UGM [1]; [12]): -
inhibition at 200 µM (A. fumigatus UGM [1]): < 50%

SMILES: O=C(NCCO[N+](=O)[O-])c1cccnc1 [Nicorandil, reference compound]
remaining activity at 20 µM (A. fumigatus UGM [8]): 27%
Concentration effect (A. fumigatus UGM [1]; [12]): -
inhibition at 200 µM (A. fumigatus UGM [1]): < 50%

anisotropy at which the KD curve plateaued (A. fumigatus UGM [2]; 30 nM ADP-TAMRA): around 50%
remaining activity at 20 µM (A. fumigatus UGM [8]; [11]): 38%
enzyme activity at which the IC50 curve plateaued (A. fumigatus UGM [1]): around 70%
Concentration effect (A. fumigatus UGM [1]; [12]): +
inhibition at 200 µM (A. fumigatus UGM [1]; [14]): > 50%
SMILES: O=c1c(O)c(-c2ccc(O)cc2)oc2cc(O)cc(O)c12 [Kaempferol]

SMILES: CS(=O)(=O)Nc1ccc([N+](=O)[O-])cc1Oc1ccccc1 [Nimesulide, reference compound]
remaining activity at 20 µM (A. fumigatus UGM [8]): 28%
Concentration effect (A. fumigatus UGM [1]; [12]): -
inhibition at 200 µM (A. fumigatus UGM [1]): < 50%

SMILES: O=c1cc(-c2ccccc2)oc2cc(O)cc(O)c12 [Chrysin]
Concentration above which compound precipitated ([10]; with 2% DMSO): above 100 µM
remaining activity at 20 µM (A. fumigatus UGM [8]; [11]): 48%
IC50 (A. fumigatus UGM [9]): > 1000 µM
Inhibition of NADPH oxidation (A. fumigatus UGM [9]): did not inhibit NADPH oxidation
IC50 (A. fumigatus UGM [1]): 24 ± 4 µM
enzyme activity at which the IC50 curve plateaued (A. fumigatus UGM [1]; UPLC IC50 curve saturating below full inhibition (chrysin at ~30 µM)): ~ 35%
Inhibition of product formation, concentration dependence (A. fumigatus UGM [1]): concentration dependent potency
Concentration effect (A. fumigatus UGM [1]; [12]): +
inhibition at 200 µM (A. fumigatus UGM [1]): > 50%
Binding to UGM detected by ITC (A. fumigatus UGM [3]): nor was binding detected
Effect on Tm of UGM (UGM; [13]): no effect on Tm

Inhibition of UGM by derivatives (A. fumigatus UGM [1]): no inhibition
SMILES: O=C1C[C@H](c2ccc(O)cc2)Oc2cc(O)cc(O)c21 [R enantioniomer of naringenin, (2 R)-naringenin]

SMILES: Cc1nc(-c2ccc(OCC(C)C)c(C#N)c2)sc1C(=O)O [Febuxostat, reference compound]
remaining activity at 20 µM (A. fumigatus UGM [8]; [11]): 39%
Inhibition of product formation, concentration dependence (A. fumigatus UGM [1]): concentration dependent potency
Concentration effect (A. fumigatus UGM [1]; [12]): +
inhibition at 200 µM (A. fumigatus UGM [1]): > 50%
Effect on Tm of UGM (UGM; [13]): reduced the Tm

remaining activity at 20 µM (A. fumigatus UGM [8]; [11]): 37%
Concentration effect (A. fumigatus UGM [1]; [12]): -
inhibition at 200 µM (A. fumigatus UGM [1]; [14]): < 50%
SMILES: COc1cc(C)c(C(=O)Oc2cc(C)c(C(=O)O)c(O)c2C)c(OC)c1C [Diffractaic acid]

SMILES: N#CC(c1ccc(Cl)cc1)c1c(Cl)cc(-n2ncc(=O)[nH]c2=O)cc1Cl (centres unmarked) [Diclazuril, reference compound]
remaining activity at 20 µM (A. fumigatus UGM [8]; [11]): 37%
Inhibition of product formation, concentration dependence (A. fumigatus UGM [1]): concentration dependent potency
Concentration effect (A. fumigatus UGM [1]; [12]): +
inhibition at 200 µM (A. fumigatus UGM [1]; [14]): > 50%
Effect on Tm of UGM (UGM; [13]): reduced the Tm

SMILES: Cc1ccc(C(=O)Nc2ccc(S(=O)(=O)O)c3cc(S(=O)(=O)O)cc(S(=O)(=O)O)c23)cc1NC(=O)c1cccc(NC(=O)Nc2cccc(C(=O)Nc3cc(C(=O)Nc4ccc(S(=O)(=O)O)c5cc(S(=O)(=O)O)cc(S(=O)(=O)O)c45)ccc3C)c2)c1 [Suramin hexasodium, reference compound]
remaining activity at 20 µM (A. fumigatus UGM [8]): 41%
Concentration effect (A. fumigatus UGM [1]; [12]): -
inhibition at 200 µM (A. fumigatus UGM [1]): < 50%

SMILES: O=c1ccn([C@@H]2O[C@H](COP(=O)(O)OP(=O)(O)O)[C@@H](O)[C@H]2O)c(=O)[nH]1 [UDP, reference compound]
Kd (A. fumigatus UGM [2]): 10 ± 1 µM
T•∆S (A. fumigatus UGM [3]; ITC, 25 °C): 10.5 ± 0.3 kcal/mol
∆G (A. fumigatus UGM [3]; ITC, 25 °C): -7.1 ± 0.1 kcal/mol
∆H (A. fumigatus UGM [3]; ITC, 25 °C): 3.3 ± 0.1 kcal/mol
Kd (A. fumigatus UGM [3]; ITC, 25 °C, read-out: KD): 5.4 ± 0.8 µM
Shift of Tm of UGM (UGM; 10 mM UDP): 3 °C

remaining activity at 20 µM (A. fumigatus UGM [8]; [11]): 14%
Concentration effect (A. fumigatus UGM [1]; [12]): -
inhibition at 200 µM (A. fumigatus UGM [1]; [14]): < 50%
SMILES: O=C(O)C1=CC(=C(c2ccc(O)c(C(=O)O)c2)c2ccc(O)c(C(=O)O)c2)C=CC1=O [Aurin tricarboxylic acid]

Solubility [10]: low solubility
remaining activity at 20 µM (A. fumigatus UGM [8]; [11]): 50%
Concentration effect (A. fumigatus UGM [1]; ellagic acid assayed at 6 and 12 µM with 2% DMSO due to low solubility): -
SMILES: O=c1oc2c(O)c(O)cc3c(=O)oc4c(O)c(O)cc1c4c23 [Ellagic acid]
